# Experimental data as given in ChEMBL document CHEMBL1201862, “PubChem BioAssay data set” (2004).
#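 Five compound concentrations were applied to cells in 96-well plates for 48 hours; endpoints were derived by simple linear interpolation of the resulting dose-response curve. Here, GI50 denotes the concentration required for 50% inhibition of growth.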 Activity calls are given as the source filed them. No stated cut-off is given here; in the data, active = GI50 up to about 1.1 µM and inactive = higher. Peptide text beside a SMILES is read from it. * marks the point of attachment. Boc = CC(C)(C)OC(=O)*
# Tests used:
# Experiment in all cases: NCI anticancer screen, dose series, 48 h
# CAKI-1 = test system: CAKI-1
# CCRF-CEM = test system: CCRF-CEM
# COLO 205 = test system: COLO 205
# HCC 2998 = test system: HCC 2998
# HCT-15 = test system: HCT-15
# HOP-92 = test system: HOP-92
# HT-29 = test system: HT-29
# M14 = test system: M14
# NCI-H460 = test system: NCI-H460
# RPMI-8226 = test system: RPMI-8226
# RXF 393 = test system: RXF 393
# SF-295 = test system: SF-295
# SF-539 = test system: SF-539
# SN12C = test system: SN12C
# SNB-19 = test system: SNB-19
# SNB-75 = test system: SNB-75
# TK-10 = test system: TK-10
# U-251 = test system: U-251
# UO-31 = test system: UO-31
# MDA-N = test system: MDA-N
Structure (SMILES),GI50 (CAKI-1),GI50 (CCRF-CEM),GI50 (COLO 205),GI50 (HCC 2998),GI50 (HCT-15),GI50 (HOP-92),GI50 (HT-29),GI50 (M14),GI50 (NCI-H460),GI50 (RPMI-8226),GI50 (RXF 393),GI50 (SF-295),GI50 (SF-539),GI50 (SN12C),GI50 (SNB-19),GI50 (SNB-75),GI50 (TK-10),GI50 (U-251),GI50 (UO-31),GI50 (MDA-N)
O=NN(CCCl)C(=O)N[C@H]1CC[C@@H](C(=O)O)CC1,92.9 µM (inactive),36.6 µM (inactive),> 100 µM (inactive),> 100 µM (inactive),> 100 µM,> 76 µM (inactive),> 100 µM (inactive),> 100 µM (inactive),49.3 µM (inactive),46.3 µM (inactive),> 100 µM (inactive),52.6 µM (inactive),29.6 µM (inactive),> 100 µM (inactive),70 µM (inactive),> 72.3 µM (inactive),> 100 µM (inactive),40.9 µM (inactive),> 100 µM (inactive),
CC1CCC(O)C(C(O)CC2CC(=O)N(C)C(=O)C2)C1 (centres undefined),> 100 µM (inactive),> 100 µM (inactive),> 100 µM (inactive),> 100 µM (inactive),,> 100 µM (inactive),> 100 µM (inactive),> 100 µM (inactive),> 100 µM (inactive),> 100 µM (inactive),> 100 µM (inactive),> 100 µM (inactive),> 100 µM (inactive),> 100 µM (inactive),> 100 µM (inactive),> 100 µM (inactive),> 100 µM (inactive),> 100 µM (inactive),> 100 µM (inactive),
CC1=C(C#N)C(N)=C2C(C)=C(C#N)C(N)=C12,> 100 µM (inactive),> 100 µM (inactive),> 100 µM (inactive),> 100 µM (inactive),> 100 µM,> 100 µM (inactive),> 100 µM (inactive),> 100 µM (inactive),> 100 µM (inactive),> 100 µM (inactive),> 100 µM (inactive),> 100 µM (inactive),> 100 µM (inactive),> 100 µM (inactive),> 100 µM (inactive),> 100 µM (inactive),> 100 µM (inactive),> 100 µM (inactive),> 100 µM (inactive),
CCCCCCCCCC(=O)Oc1cccc2onc(C)c12,> 100 µM (inactive),> 100 µM (inactive),> 100 µM (inactive),79.1 µM (inactive),> 100 µM,> 100 µM (inactive),> 100 µM (inactive),> 100 µM (inactive),> 100 µM (inactive),> 100 µM (inactive),> 100 µM (inactive),> 100 µM (inactive),> 100 µM (inactive),> 100 µM (inactive),> 100 µM (inactive),> 100 µM (inactive),> 100 µM (inactive),> 100 µM (inactive),40.8 µM (inactive),
COc1ccc(/C=C2\C[C@H]3[C@@H]4CC=C5C[C@@H](O)CC[C@]5(C)[C@H]4CC[C@]3(C)\C2=N\O)cc1,2.58 µM (inactive),4.58 µM (inactive),10 µM (inactive),,6 µM,25.6 µM (inactive),16.1 µM (inactive),12.7 µM (inactive),34.4 µM (inactive),2.26 µM (inactive),12.7 µM (inactive),6.98 µM (inactive),21.8 µM (inactive),18.1 µM (inactive),25.8 µM (inactive),,27.6 µM (inactive),10.5 µM (inactive),14.3 µM (inactive),18.8 µM (inactive)
COc1ccc([C@H]2CC(=O)N3CCCC3N2)cc1 (some centres undefined),> 100 µM (inactive),> 100 µM (inactive),> 100 µM (inactive),> 100 µM (inactive),> 100 µM,> 100 µM (inactive),> 100 µM (inactive),> 100 µM (inactive),> 100 µM (inactive),> 100 µM (inactive),> 100 µM (inactive),> 100 µM (inactive),> 100 µM (inactive),> 100 µM (inactive),> 100 µM (inactive),> 100 µM (inactive),> 100 µM (inactive),> 100 µM (inactive),> 100 µM (inactive),
Cc1nn2c(=O)n(-c3cccc(-n4nnc5c(-c6ccccc6)c(C)nn5c4=O)c3C)nnc2c1-c1ccccc1,39.4 µM (inactive),19.9 µM (inactive),17.5 µM (inactive),20.5 µM (inactive),16.1 µM,55.5 µM (inactive),35.7 µM (inactive),15.2 µM (inactive),18.5 µM (inactive),17.6 µM (inactive),34.6 µM (inactive),44.9 µM (inactive),24.4 µM (inactive),17.1 µM (inactive),> 100 µM (inactive),37.4 µM (inactive),47.9 µM (inactive),25.2 µM (inactive),8.91 µM (inactive),
Cn1cnc([N+](=O)[O-])c1Sc1nc2cccnc2[nH]1,18.3 µM (inactive),14.5 µM (inactive),17.8 µM (inactive),> 100 µM (inactive),> 100 µM,83 µM (inactive),> 100 µM (inactive),> 100 µM (inactive),> 100 µM (inactive),68.5 µM (inactive),97.5 µM (inactive),37.7 µM (inactive),> 100 µM (inactive),40.3 µM (inactive),> 100 µM (inactive),> 100 µM (inactive),55.6 µM (inactive),> 100 µM (inactive),89.7 µM (inactive),
O=C(O)CCSC(=O)Nc1cccc2ccccc12,> 100 µM (inactive),> 100 µM (inactive),> 100 µM (inactive),> 100 µM (inactive),> 100 µM,> 100 µM (inactive),> 100 µM (inactive),> 100 µM (inactive),> 100 µM (inactive),> 100 µM (inactive),> 100 µM (inactive),> 100 µM (inactive),> 100 µM (inactive),> 100 µM (inactive),> 100 µM (inactive),> 100 µM (inactive),> 100 µM (inactive),> 100 µM (inactive),> 100 µM (inactive),
CC(C)(C)OC(=O)NC(CO)c1cccc(OCc2ccccc2)c1 (centres undefined),> 100 µM (inactive),31.7 µM (inactive),47.3 µM (inactive),> 100 µM (inactive),> 100 µM,22.1 µM (inactive),> 100 µM (inactive),41.9 µM (inactive),35.3 µM (inactive),43.4 µM (inactive),> 100 µM (inactive),63.4 µM (inactive),> 100 µM (inactive),> 100 µM (inactive),> 81.7 µM (inactive),> 100 µM (inactive),> 82.6 µM (inactive),94.6 µM (inactive),> 100 µM (inactive),
CC(=O)OC1[C@H](OC(C)=O)C2=C(C)[C@@H](OC(C)=O)C[C@@]2(C(C)(C)O)[C@@H](OC(C)=O)[C@H]2[C@@]1(C)[C@@H](OC(C)=O)CC(OC(C)=O)[C@]21CO1 (some centres undefined),> 100 µM (inactive),> 100 µM (inactive),> 100 µM (inactive),,> 100 µM,,> 100 µM (inactive),> 100 µM (inactive),,> 100 µM (inactive),> 100 µM (inactive),> 100 µM (inactive),> 100 µM (inactive),> 100 µM (inactive),> 100 µM (inactive),> 100 µM (inactive),> 100 µM (inactive),> 100 µM (inactive),> 100 µM (inactive),> 100 µM (inactive)
COC1=CC(=O)C2C(C1=O)C(c1ccc(Cl)cc1)[C@@H]2C (some centres undefined),37.8 µM (inactive),29.4 µM (inactive),35 µM (inactive),45.5 µM (inactive),17.1 µM,24.5 µM (inactive),> 100 µM (inactive),25.7 µM (inactive),30.1 µM (inactive),39.7 µM (inactive),24.1 µM (inactive),93.1 µM (inactive),22.8 µM (inactive),,7.05 µM (inactive),17.4 µM (inactive),38.7 µM (inactive),25.2 µM (inactive),19.7 µM (inactive),
Nc1ccc(-c2nc3ccccc3s2)cc1F,19.5 µM (inactive),5.47 µM (inactive),20.9 µM (inactive),,33.2 µM,45.4 µM (inactive),29.2 µM (inactive),26.8 µM (inactive),,,27.2 µM (inactive),25.8 µM (inactive),,27.7 µM (inactive),19.2 µM (inactive),21.5 µM (inactive),,15.4 µM (inactive),14.2 µM (inactive),37.2 µM (inactive)
CSCCC(NC(=O)C(CC(C)C)NC(=O)CNC(=O)OC(C)(C)C)C(=O)N(C)C (stereo not drawn) (Boc-Gly-Leu-Met-NMe2; configuration not given here),> 100 µM (inactive),> 100 µM (inactive),> 100 µM (inactive),,> 100 µM,> 100 µM (inactive),> 100 µM (inactive),> 100 µM (inactive),,,> 100 µM (inactive),> 100 µM (inactive),> 100 µM (inactive),> 100 µM (inactive),> 100 µM (inactive),0.0272 µM (active),> 100 µM (inactive),> 100 µM (inactive),> 100 µM (inactive),> 100 µM (inactive)
CC(C)(C)NCC(O)COc1cccc2[nH]c(C#N)cc12 (centres undefined) [CYANOPINDOLOL],> 100 µM (inactive),,56 µM (inactive),,> 100 µM,,> 100 µM (inactive),> 100 µM (inactive),,> 100 µM (inactive),,> 100 µM (inactive),> 100 µM (inactive),> 100 µM (inactive),> 100 µM (inactive),,84.5 µM (inactive),> 100 µM (inactive),> 100 µM (inactive),> 100 µM (inactive)
